Experimental data published in US6355799B1, “Substituted benzene compounds, process for their preparation, and herbicidal and defoliant compositions containing them” (ISK Americas Incorporated, priority 1997, dated 2002).

Key:
Format in all cases: in vivo
[1] = system: barnyardgrass (Echinochloa crus-galli, ECHCG); assay: Post-emerge test, greenhouse herbicide activity screening; settings: post-emerge, phytotoxicity rating 0-100 at 14 days after application
Method in brief: (§1)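 Fourteen days after spraying, crop and weed injury was graded visually from 0, no effect, to 100, every plant dead. Test substances were dissolved in acetone and applied at 15–1000 g ai/ha with a flat-fan nozzle. Application was either pre-emergence, one day after sowing, or post-emergence at the 2–3 leaf stage.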

[2] = system: lambsquarters (Chenopodium album, CHEAL); assay: as above; settings: post-emerge, phytotoxicity rating 0-100 at 14 days after application
Method in brief: as §1

[3] = system: ivyleaf morningglory (Ipomoea hederacea, IPOHE); assay: as above; settings: post-emerge, phytotoxicity rating 0-100 at 14 days after application
Method in brief: as §1

[4] = system: sicklepod (Cassia obtusifolia, CASOB); assay: as above; settings: post-emerge, phytotoxicity rating 0-100 at 14 days after application
Method in brief: as §1

[5] = system: large crabgrass (Digitaria sanguinalis, DIGSA); assay: as above; settings: post-emerge, phytotoxicity rating 0-100 at 14 days after application
Method in brief: as §1

[6] = system: green foxtail (Setaria viridis, SETVI); assay: as above; settings: post-emerge, phytotoxicity rating 0-100 at 14 days after application
Method in brief: as §1

[7] = system: velvetleaf (Abutilon theophrasti, ABUTH); assay: as above; settings: post-emerge, phytotoxicity rating 0-100 at 14 days after application
Method in brief: as §1

[8] = system: redroot pigweed (Amaranthus retroflexus, AMARE); assay: as above; settings: post-emerge, phytotoxicity rating 0-100 at 14 days after application
Method in brief: as §1

[9] = system: barnyardgrass (Echinochloa crus-galli, ECHCG); assay: Pre-emerge test, greenhouse herbicide activity screening; settings: pre-emerge, phytotoxicity rating 0-100 at 14 days after application
Method in brief: (§2)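 Plants grown in 10 cm pots of sandy loam mix received acetone-dissolved compounds through a moving flat-fan nozzle. Doses ranged from 15 to 1000 g ai/ha. Pre-emerge pots were seeded one day earlier, post-emerge pots 8–21 days earlier. Fourteen days on, each pot was graded 0–100 for damage.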

[10] = system: lambsquarters (Chenopodium album, CHEAL); assay: as above; settings: pre-emerge, phytotoxicity rating 0-100 at 14 days after application
Method in brief: as §2

[11] = system: ivyleaf morningglory (Ipomoea hederacea, IPOHE); assay: as above; settings: pre-emerge, phytotoxicity rating 0-100 at 14 days after application
Method in brief: as §2

[12] = system: sicklepod (Cassia obtusifolia, CASOB); assay: as above; settings: pre-emerge, phytotoxicity rating 0-100 at 14 days after application
Method in brief: as §2

[13] = system: large crabgrass (Digitaria sanguinalis, DIGSA); assay: as above; settings: pre-emerge, phytotoxicity rating 0-100 at 14 days after application
Method in brief: as §2

[14] = system: green foxtail (Setaria viridis, SETVI); assay: as above; settings: pre-emerge, phytotoxicity rating 0-100 at 14 days after application
Method in brief: as §2

[15] = system: johnsongrass (Sorghum halepense, SORHA); assay: as above; settings: pre-emerge, phytotoxicity rating 0-100 at 14 days after application
Method in brief: as §2

[16] = system: velvetleaf (Abutilon theophrasti, ABUTH); assay: as above; settings: pre-emerge, phytotoxicity rating 0-100 at 14 days after application
Method in brief: as §2

[17] = system: upland rice (Oryza sp., var. Tebonnet, RICE); assay: Pre-emerge test, crop safety; settings: crop damage, pre-emerge, phytotoxicity rating 0-100 at 14 days after application
Method in brief: (§3)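 Applied at 15–1000 g ai/ha from acetone in 187 l/ha spray volume. Post-emergence applications included 0.25% v/v non-ionic surfactant and reached plants sown 8–21 days before. Pre-emergence applications were incorporated by surface watering. Efficacy or crop damage was rated on a 0–100 scale after 14 days.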

[18] = system: field corn (Zea mays L., var. Dekalb 535, CORN); assay: Pre-emerge test, crop safety; settings: crop damage, pre-emerge, phytotoxicity rating 0-100 at 14 days after application
Method in brief: as §3

[19] = system: redroot pigweed (Amaranthus retroflexus, AMARE); assay: Pre-emerge test, greenhouse herbicide activity screening; settings: pre-emerge, phytotoxicity rating 0-100 at 14 days after application
Method in brief: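 Herbicidal damage is scored 0 (none) to 100 (complete plant death) two weeks after a simulated field spray. Rates span 15–1000 g ai/ha, delivered in acetone at 187 l/ha. For post-emergence treatments, plants have 2–3 leaves and the spray carries 0.25% v/v non-ionic surfactant.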

[20] = system: upland rice (Oryza sp., var. Tebonnet, RICE); assay: Post-emerge test, crop safety; settings: post-emerge, crop damage rating 0-100 at 14 days after application
Method in brief: (§4)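 Each test used a mechanized track sprayer delivering 187 l/ha of acetone solution at 15–1000 g ai/ha. Post-emerge foliage at 2–3 leaves was treated with added 0.25% v/v non-ionic surfactant and bottom-watered only. Injury was assessed on day 14, where 100 means total kill.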

[21] = system: field corn (Zea mays L., var. Dekalb 535, CORN); assay: Post-emerge test, crop safety; settings: post-emerge, crop damage rating 0-100 at 14 days after application
Method in brief: as §4

COc1c(Cl)cc(F)c(-n2nnn(CCCF)c2=O)c1NC(=O)c1ccc2ccccc2c1 [Compound 5-26] was tested, and the “Post-emerge Herbicidal Activity ECHCG” value ([1]; 63 g ai/ha) was 20, the “Post-emerge Herbicidal Activity ECHCG” value ([1]; 250 g ai/ha) was 60 and the “Post-emerge Herbicidal Activity CHEAL” value ([2]; 63 g ai/ha) was 100. For the same molecule, the “Post-emerge Herbicidal Activity CHEAL” value ([2]; 250 g ai/ha) was 100, the “Post-emerge Herbicidal Activity IPOHE” value ([3]; 63 g ai/ha) was 90 and the “Post-emerge Herbicidal Activity IPOHE” value ([3]; 250 g ai/ha) was 70. For the same molecule, the “Post-emerge Herbicidal Activity CASOB” value ([4]; 63 g ai/ha) was 90, the “Post-emerge Herbicidal Activity CASOB” value ([4]; 250 g ai/ha) was 100 and the “Post-emerge Herbicidal Activity DIGSA” value ([5]; 63 g ai/ha) was 20. For the same molecule, the “Post-emerge Herbicidal Activity DIGSA” value ([5]; 250 g ai/ha) was 30, the “Post-emerge Herbicidal Activity SETVI” value ([6]; 63 g ai/ha) was 40 and the “Post-emerge Herbicidal Activity SETVI” value ([6]; 250 g ai/ha) was 70. The “Post-emerge Herbicidal Activity ABUTH” value ([7]; 63 g ai/ha) was 100, the “Post-emerge Herbicidal Activity ABUTH” value ([7]; 250 g ai/ha) was 100 and the “Post-emerge Herbicidal Activity AMARE” value ([8]; 63 g ai/ha) was 100. The “Post-emerge Herbicidal Activity AMARE” value ([8]; 250 g ai/ha) was 90, the “Pre-emerge Herbicidal Activity ECHCG” value ([9]; rate 63 g ai/ha) was 20 and the “Pre-emerge Herbicidal Activity ECHCG” value ([9]; rate 250 g ai/ha) was 30. For the same molecule, the “Pre-emerge Herbicidal Activity CHEAL” value ([10]; rate 63 g ai/ha) was 100, the “Pre-emerge Herbicidal Activity CHEAL” value ([10]; rate 250 g ai/ha) was 100 and the “Pre-emerge Herbicidal Activity IPOHE” value ([11]; rate 63 g ai/ha) was 0. For the same molecule, the “Pre-emerge Herbicidal Activity IPOHE” value ([11]; rate 250 g ai/ha) was 40, the “Pre-emerge Herbicidal Activity CASOB” value ([12]; rate 63 g ai/ha) was 10 and the “Pre-emerge Herbicidal Activity CASOB” value ([12]; rate 250 g ai/ha) was 80. For the same molecule, the “Pre-emerge Herbicidal Activity DIGSA” value ([13]; rate 63 g ai/ha) was 30, the “Pre-emerge Herbicidal Activity DIGSA” value ([13]; rate 250 g ai/ha) was 80 and the “Pre-emerge Herbicidal Activity SETVI” value ([14]; rate 63 g ai/ha) was 60. For the same molecule, the “Pre-emerge Herbicidal Activity SETVI” value ([14]; rate 250 g ai/ha) was 90, the “Pre-emerge Herbicidal Activity SORHA” value ([15]; rate 63 g ai/ha) was 0 and the “Pre-emerge Herbicidal Activity SORHA” value ([15]; rate 250 g ai/ha) was 30. The “Pre-emerge Herbicidal Activity ABUTH” value ([16]; rate 63 g ai/ha) was 70, the “Pre-emerge Herbicidal Activity ABUTH” value ([16]; rate 250 g ai/ha) was 100 and the “Pre-emerge Herbicidal Activity RICE” value ([17]; rate 63 g ai/ha) was 15. For the same molecule, the “Pre-emerge Herbicidal Activity RICE” value ([17]; rate 250 g ai/ha) was 40, the “Pre-emerge Herbicidal Activity CORN” value ([18]; rate 63 g ai/ha) was 0 and the “Pre-emerge Herbicidal Activity CORN” value ([18]; rate 250 g ai/ha) was 0. For the same molecule, the “Pre-emerge Herbicidal Activity AMARE” value ([19]; rate 63 g ai/ha) was 100, the “Pre-emerge Herbicidal Activity AMARE” value ([19]; rate 250 g ai/ha) was 100 and the “Post-emerge Herbicidal Activity RICE” value ([20]; 63 g ai/ha) was 50. For the same molecule, the “Post-emerge Herbicidal Activity RICE” value ([20]; 250 g ai/ha) was 60, the “Post-emerge Herbicidal Activity CORN” value ([21]; 63 g ai/ha) was 10 and the “Post-emerge Herbicidal Activity CORN” value ([21]; 250 g ai/ha) was 5.
